Measured values: US7235549B2, “Benzamide, heteroarylamide and reverse amides” (Pfizer Inc., priority 2001, dated 2007)

melting point: 148 to 150 °C
SMILES: O=C(NCCc1ccccc1C(F)(F)F)c1cc(-n2ncc(=O)[nH]c2=O)ccc1Cl [Example 48, 2-Chloro-5-(3,5-dioxo-4,5-dihydro-3H-[1,2,4]triazin-2-yl)-N-[2-(2-trifluoromethyl-phenyl)-ethyl]-benzamide]
